Test [1] concerns the target Potassium voltage-gated channel subfamily KQT member 2 (Rattus norvegicus, UniProt O88943). Put plainly: potentiation of rat KCNQ2 current – cell-based, retigabine-insensitive compounds, dose response (AID 2654). The class given is functional.
Test [2] concerns the target Mitochondrial peptide methionine sulfoxide reductase (Bos taurus, UniProt P54149). The experiment in a line: Absorbance-based biochemical high throughput dose response assay for activators of Methionine sulfoxide reductase A (MsrA). The class given is functional.
A further test concerns the target Beta-galactosidase (Escherichia coli, UniProt Q8VNN2). Put plainly: detection-enzyme interference by beta-gal modulators – biochemical, E. coli enzyme, set 3, artefact control for CCR6 antagonist project, dose response (AID 504712). The test is classed as functional.
Another test addresses T1, Coagulation factor XII (Homo sapiens, UniProt P00748).
T1 sequence (P00748 whole entry): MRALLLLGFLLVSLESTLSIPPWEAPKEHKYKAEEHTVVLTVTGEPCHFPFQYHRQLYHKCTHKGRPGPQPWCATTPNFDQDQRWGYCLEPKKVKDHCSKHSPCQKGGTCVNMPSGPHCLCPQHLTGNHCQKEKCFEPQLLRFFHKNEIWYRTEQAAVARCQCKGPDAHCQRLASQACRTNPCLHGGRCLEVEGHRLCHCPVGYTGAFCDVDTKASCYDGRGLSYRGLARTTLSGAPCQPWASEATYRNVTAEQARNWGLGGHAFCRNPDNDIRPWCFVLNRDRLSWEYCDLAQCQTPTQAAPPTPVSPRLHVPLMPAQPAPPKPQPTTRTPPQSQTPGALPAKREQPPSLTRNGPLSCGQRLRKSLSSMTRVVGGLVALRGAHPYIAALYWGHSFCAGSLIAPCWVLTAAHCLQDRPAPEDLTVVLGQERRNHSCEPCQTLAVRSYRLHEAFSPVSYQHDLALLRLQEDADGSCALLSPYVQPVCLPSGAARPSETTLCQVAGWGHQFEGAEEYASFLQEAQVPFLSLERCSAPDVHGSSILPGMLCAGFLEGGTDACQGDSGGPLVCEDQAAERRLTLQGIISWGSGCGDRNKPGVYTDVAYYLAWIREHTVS
The experiment in a line: activated coagulation factor XII inhibitor potency, concentration-effect curve, cell-free (AID 716). The test is classed as functional.

Test [3] deals with NACHT, LRR and PYD domains-containing protein 3 (Homo sapiens, UniProt Q96P20). The experiment in a line: NALP3 inhibitors in yeast, dose response, luminescent (AID 488799). The class given is functional.
Chain of NACHT, LRR and PYD domains-containing protein 3 (Q96P20 whole entry, the tested form may be a part): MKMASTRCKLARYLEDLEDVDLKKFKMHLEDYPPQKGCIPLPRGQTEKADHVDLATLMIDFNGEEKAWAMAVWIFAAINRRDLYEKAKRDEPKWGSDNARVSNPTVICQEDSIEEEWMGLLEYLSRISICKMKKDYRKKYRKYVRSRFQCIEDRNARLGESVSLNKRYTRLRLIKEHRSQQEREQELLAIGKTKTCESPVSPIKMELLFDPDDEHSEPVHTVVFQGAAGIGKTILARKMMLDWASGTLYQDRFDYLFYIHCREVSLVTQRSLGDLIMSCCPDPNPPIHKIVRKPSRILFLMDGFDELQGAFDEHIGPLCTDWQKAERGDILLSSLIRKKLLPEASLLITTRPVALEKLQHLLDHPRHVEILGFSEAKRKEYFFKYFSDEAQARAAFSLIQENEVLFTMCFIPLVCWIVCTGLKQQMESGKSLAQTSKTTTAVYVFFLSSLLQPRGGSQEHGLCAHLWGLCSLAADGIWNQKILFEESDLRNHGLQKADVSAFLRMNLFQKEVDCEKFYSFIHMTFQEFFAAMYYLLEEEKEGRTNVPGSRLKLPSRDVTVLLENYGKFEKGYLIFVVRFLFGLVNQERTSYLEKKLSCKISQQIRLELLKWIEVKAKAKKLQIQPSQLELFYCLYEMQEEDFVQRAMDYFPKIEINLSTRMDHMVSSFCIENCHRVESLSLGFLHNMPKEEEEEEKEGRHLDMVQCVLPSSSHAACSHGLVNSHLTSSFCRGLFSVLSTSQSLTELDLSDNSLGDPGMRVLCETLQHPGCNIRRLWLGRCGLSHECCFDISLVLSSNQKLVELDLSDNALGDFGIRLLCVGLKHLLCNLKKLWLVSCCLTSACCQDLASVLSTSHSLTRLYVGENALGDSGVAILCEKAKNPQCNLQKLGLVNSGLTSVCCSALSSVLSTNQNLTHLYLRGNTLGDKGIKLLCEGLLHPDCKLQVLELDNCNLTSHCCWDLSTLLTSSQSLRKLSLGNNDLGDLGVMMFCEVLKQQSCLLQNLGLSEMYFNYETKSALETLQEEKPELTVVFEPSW
Test [4] concerns the target E3 ubiquitin-protein ligase Mdm2/Protein Mdm4 (Homo sapiens, UniProt O15151+Q00987). Put plainly: disruption of Mdm2/MdmX protein binding – luminescence detection, dose response (AID 504593). The test is classed as functional.
Test [5] can be described thus: Luminescence Cell-Based Dose Retest to Confirm Inhibitors of Cancer Stem Cells. [Related pubchem assays (depositor defined):AID2717, AID2721]. The conditions noted are these: Homo sapiens. The test is classed as functional.
Test [6] relates to Vero. Put plainly: cells. The test is classed as functional, cell-based. As to conditions: Chlorocebus sabaeus.
Test [7] concerns Vero. Put plainly: cells. The class given is functional. As to conditions: Chlorocebus sabaeus.
The target of test [8] is Female germline-specific tumor suppressor gld-1 (Caenorhabditis elegans, UniProt Q17339). Put plainly: blockers of GLD-1/TGE RNA complex formation – biochemical, fluorescence polarization, C. elegans, dose response (AID 2802).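 Further: fluorescence polarization of labeled TGE RNA bound by purified gld-1 protein.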 For orientation: In fluorescence polarisation assays a small probe gives low polarisation when free and higher when bound to something large.
In test [9] the target is T2, Polyadenylate-binding protein 1 (Homo sapiens, UniProt P11940). Put plainly: MLLE binding blockers, Cy5 peptide tracer – biochemical, fluorescence polarization, Cy5-PAM2 peptide, secondary, miRNA deadenylation inhibitor project, dose response (AID 602260). The test is classed as functional. The conditions noted are these: read-out: IC50_Mean.
T2 sequence (P11940 whole entry): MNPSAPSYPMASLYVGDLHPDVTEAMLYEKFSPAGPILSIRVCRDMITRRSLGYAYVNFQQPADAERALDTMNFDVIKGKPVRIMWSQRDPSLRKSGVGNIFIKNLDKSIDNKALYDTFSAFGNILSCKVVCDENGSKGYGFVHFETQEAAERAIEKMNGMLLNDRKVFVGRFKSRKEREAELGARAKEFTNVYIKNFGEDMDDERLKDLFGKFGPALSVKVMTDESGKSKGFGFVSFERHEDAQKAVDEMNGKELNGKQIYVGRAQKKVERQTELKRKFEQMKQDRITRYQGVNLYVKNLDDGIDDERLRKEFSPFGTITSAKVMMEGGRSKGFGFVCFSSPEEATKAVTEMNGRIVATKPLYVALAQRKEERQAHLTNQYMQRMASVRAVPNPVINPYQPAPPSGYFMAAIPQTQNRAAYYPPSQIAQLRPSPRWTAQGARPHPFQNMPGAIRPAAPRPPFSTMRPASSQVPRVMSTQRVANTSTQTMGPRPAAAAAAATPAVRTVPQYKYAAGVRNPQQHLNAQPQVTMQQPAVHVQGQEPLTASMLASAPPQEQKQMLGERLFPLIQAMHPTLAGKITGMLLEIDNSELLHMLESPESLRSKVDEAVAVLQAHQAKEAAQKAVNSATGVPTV
The next test concerns the target Protein Rev (Human immunodeficiency virus type 1 group M subtype B (isolate HXB2)(HIV-1), UniProt P04618). The experiment in a line: blockers of HIV Rev/RRE RNA complex – biochemical, fluorescence polarization, HIV-1, dose response (AID 434976). On the set-up: species or system Human immunodeficiency virus 1.
Test [10] addresses T2, Polyadenylate-binding protein 1. The experiment in a line: MLLE domain peptide-binding blockers, IC50 – biochemical, fluorescence polarization, FITC-PAM2 peptide, dose response (AID 602259). As to conditions: read-out: IC50_Mean. The class given is functional.

Calls of active or inactive are those of the source.

The values below come from ChEMBL document CHEMBL1201862, “PubChem BioAssay data set” (2004).
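Wherever AC50 is given: cells exposed to compound for roughly 70 hours or longer before luminescence read.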

Chain of E3 ubiquitin-protein ligase Mdm2/Protein Mdm4 (Q00987 whole entry): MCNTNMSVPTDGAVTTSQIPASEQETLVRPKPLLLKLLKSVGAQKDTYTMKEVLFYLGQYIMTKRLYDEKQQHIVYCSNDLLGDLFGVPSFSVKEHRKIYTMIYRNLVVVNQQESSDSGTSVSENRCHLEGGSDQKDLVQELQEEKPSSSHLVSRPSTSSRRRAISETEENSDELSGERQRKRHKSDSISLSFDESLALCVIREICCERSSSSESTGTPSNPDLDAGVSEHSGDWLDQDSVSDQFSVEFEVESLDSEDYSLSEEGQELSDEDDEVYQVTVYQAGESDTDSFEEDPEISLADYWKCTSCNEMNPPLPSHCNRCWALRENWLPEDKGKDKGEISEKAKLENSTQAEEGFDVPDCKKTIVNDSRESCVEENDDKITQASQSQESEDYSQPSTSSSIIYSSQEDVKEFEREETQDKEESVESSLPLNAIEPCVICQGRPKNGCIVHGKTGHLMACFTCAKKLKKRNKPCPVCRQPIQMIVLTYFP
Chain of E3 ubiquitin-protein ligase Mdm2/Protein Mdm4 (O15151 whole entry): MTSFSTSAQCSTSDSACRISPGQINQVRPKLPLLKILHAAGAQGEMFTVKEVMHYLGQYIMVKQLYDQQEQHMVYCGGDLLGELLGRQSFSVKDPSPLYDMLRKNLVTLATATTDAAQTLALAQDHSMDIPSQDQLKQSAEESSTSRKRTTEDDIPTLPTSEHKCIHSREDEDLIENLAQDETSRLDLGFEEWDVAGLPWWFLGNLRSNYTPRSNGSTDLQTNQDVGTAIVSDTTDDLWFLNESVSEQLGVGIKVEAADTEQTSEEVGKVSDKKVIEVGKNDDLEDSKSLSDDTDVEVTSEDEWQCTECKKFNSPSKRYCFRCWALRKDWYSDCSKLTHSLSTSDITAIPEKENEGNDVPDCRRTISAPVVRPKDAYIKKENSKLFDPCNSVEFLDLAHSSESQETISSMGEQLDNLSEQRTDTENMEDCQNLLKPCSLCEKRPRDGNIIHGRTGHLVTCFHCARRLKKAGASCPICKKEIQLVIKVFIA
Chain of Mitochondrial peptide methionine sulfoxide reductase (P54149 whole entry): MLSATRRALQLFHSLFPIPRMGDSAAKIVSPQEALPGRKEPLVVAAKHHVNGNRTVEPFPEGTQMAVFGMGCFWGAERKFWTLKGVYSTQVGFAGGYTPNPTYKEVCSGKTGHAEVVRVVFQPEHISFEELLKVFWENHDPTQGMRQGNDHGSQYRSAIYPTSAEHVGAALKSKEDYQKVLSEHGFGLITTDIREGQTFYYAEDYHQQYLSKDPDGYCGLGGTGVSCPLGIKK
Chain of Potassium voltage-gated channel subfamily KQT member 2 (O88943 whole entry): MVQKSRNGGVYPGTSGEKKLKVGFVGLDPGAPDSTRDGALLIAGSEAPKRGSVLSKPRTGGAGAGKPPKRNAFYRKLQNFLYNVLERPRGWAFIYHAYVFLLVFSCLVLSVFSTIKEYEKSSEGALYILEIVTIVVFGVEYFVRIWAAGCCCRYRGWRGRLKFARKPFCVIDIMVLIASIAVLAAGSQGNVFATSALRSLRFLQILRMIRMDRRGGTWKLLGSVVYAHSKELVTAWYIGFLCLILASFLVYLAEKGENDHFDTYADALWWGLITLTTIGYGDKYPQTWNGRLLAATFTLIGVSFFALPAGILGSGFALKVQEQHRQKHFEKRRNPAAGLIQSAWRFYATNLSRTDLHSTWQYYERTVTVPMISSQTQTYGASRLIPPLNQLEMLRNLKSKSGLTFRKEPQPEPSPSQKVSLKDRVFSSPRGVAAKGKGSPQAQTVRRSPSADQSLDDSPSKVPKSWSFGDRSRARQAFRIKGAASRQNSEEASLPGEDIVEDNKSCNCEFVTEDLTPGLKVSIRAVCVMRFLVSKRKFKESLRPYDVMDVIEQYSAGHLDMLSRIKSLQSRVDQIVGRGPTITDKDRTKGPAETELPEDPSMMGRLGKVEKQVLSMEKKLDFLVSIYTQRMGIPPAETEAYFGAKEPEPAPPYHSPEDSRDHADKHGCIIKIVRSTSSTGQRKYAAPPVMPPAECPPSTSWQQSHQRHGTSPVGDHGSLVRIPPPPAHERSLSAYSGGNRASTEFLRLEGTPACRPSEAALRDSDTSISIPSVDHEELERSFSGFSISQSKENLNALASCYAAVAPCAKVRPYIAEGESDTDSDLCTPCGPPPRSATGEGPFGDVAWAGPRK
Chain of Beta-galactosidase (Q8VNN2 whole entry): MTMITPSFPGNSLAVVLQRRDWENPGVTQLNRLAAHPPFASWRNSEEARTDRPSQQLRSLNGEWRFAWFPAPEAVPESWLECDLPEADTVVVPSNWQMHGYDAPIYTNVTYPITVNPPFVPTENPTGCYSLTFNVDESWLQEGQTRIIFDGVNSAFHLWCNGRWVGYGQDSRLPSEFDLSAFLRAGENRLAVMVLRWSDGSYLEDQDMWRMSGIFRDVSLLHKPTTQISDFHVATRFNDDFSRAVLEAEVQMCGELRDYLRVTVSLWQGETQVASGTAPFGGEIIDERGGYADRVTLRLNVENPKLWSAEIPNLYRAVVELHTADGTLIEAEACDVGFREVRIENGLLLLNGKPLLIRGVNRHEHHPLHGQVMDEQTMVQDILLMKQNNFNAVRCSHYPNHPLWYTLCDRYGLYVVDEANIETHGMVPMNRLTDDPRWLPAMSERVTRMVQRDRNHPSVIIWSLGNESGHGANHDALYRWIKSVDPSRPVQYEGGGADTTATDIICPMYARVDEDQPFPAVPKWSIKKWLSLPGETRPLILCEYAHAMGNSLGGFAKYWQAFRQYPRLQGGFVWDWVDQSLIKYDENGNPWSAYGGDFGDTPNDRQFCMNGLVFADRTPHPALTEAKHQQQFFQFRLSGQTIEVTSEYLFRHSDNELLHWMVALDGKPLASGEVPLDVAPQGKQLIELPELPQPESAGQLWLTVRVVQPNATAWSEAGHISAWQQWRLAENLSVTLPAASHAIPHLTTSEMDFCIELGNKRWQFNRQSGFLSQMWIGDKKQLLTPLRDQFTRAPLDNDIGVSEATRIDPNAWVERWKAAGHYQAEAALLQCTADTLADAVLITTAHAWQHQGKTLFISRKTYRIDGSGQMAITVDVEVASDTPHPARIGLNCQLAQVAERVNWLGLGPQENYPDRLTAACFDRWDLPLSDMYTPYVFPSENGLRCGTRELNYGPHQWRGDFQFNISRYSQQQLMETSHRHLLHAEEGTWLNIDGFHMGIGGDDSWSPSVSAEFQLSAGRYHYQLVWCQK
Chain of Protein Rev (P04618 whole entry, the tested form may be a part): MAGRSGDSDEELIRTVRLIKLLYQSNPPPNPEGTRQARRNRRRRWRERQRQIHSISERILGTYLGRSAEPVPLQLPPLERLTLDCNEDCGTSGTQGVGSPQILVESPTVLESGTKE

Take `S=C(Nc1ccc(Nc2ccccc2)cc1)Nc1cccnc1`: in [1], the EC50 is 11 µM (active).
Take `CS(=O)(=O)c1cc([N+](=O)[O-])c(Sc2nc3ccccc3[nH]2)c([N+](=O)[O-])c1`: the EC50 in test [2] was > 104 µM (inactive). Further, the IC50 at Beta-galactosidase is > 66.6 µM (inactive).
As for `CCOC(=O)c1nnn(-c2nonc2N)c1CNc1ccc(C)c(Br)c1`, the IC50 at Coagulation factor XII was > 50 µM (inactive).
`COc1cccc(NC(=O)c2ccccc2)c1`: the IC50 in test [3] was 13.7 µM (active).
As for `O=C(/C=C/c1c(F)cccc1Cl)c1ccc(O)cc1`, the figures for the IC50 (in [4]; with Vero [6]) were 5.74 µM (active) and 23.6 µM (active), respectively. Besides, the AC50 in test [5] is 6.85 µM (active). The CC50 in the test on Vero [7] was 19.9 µM (active).
Take `COc1ccc2nc(N3CCCCC3)c(C#N)cc2c1`: the IC50 in [8] is 6.28 µM (active); in [9], > 66 µM (inactive); on Protein Rev it was 14.8 µM (not active); in test [10], 18.5 µM (active).

A word on the EC50: it is the concentration needed to bring the measured effect to its halfway point. In general, AC50 refers to the concentration at which the activity in the assay is half-maximal. What is called CC50 is the concentration giving 50% cytotoxicity.
